Reference: ChEMBL document CHEMBL1126305, “Synthesis and antiviral properties of (+/-)-5'-noraristeromycin and related purine carbocyclic nucleosides. A new lead for anti-human cytomegalovirus agent design” (1992)
≈ marks a conversion by molar mass, not a printed value.

What was measured:
HeLa [1] = assay: Minimum inhibitory concentration required to reduce virus induced cytopathicity by 50% was determined against respiratory syncytial virus in HeLa cells; type: functional; details: Homo sapiens
Vero [2] = assay: Minimum inhibitory concentration required to reduce virus induced cytopathicity by 50% was determined against measles virus in Vero cells; type: functional; details: Chlorocebus sabaeus
Vero [3] = assay: Minimum inhibitory concentration required to reduce virus induced cytopathicity by 50% was determined against reo type 1 virus in Vero cells; type: functional; details: Chlorocebus sabaeus
Influenza A virus = assay: (§1) Minimum inhibitory concentration required to reduce virus induced cytopathicity by 50% was determined against influenza A virus in MDCK cells; type: functional
HeLa [4] = assay: Minimum inhibitory concentration required to reduce virus induced cytopathicity by 50% was determined against vesicular stomatitis virus in HeLa cells; type: functional; details: Homo sapiens
Homo sapiens = species: Homo sapiens; assay: (§2) Minimum inhibitory concentration required to reduce virus induced cytopathicity by 50% was determined against HCMV virus in HEL cells; type: functional
E6SM [5] = assay: Minimum inhibitory concentration required to reduce virus induced cytopathicity by 50% was determined against HSV-2 virus in E6SM cells; type: functional; details: Homo sapiens
Vero [6] = assay: Minimum inhibitory concentration required to reduce virus induced cytopathicity by 50% was determined against coxsackie B4 virus in Vero cells; type: functional; details: Chlorocebus sabaeus
Vero [7] = assay: Minimum inhibitory concentration required to reduce virus induced cytopathicity by 50% was determined against junin virus in Vero cells; type: functional; details: Chlorocebus sabaeus
Vero [8] = assay: Minimum inhibitory concentration required to reduce virus induced cytopathicity by 50% was determined against semliki forest virus in Vero cells; type: functional; details: Chlorocebus sabaeus
Vero [9] = assay: Minimum inhibitory concentration required to reduce virus induced cytopathicity by 50% was determined against sindbis virus in Vero cells; type: functional; details: Chlorocebus sabaeus
HeLa [10] = assay: Minimum inhibitory concentration required to reduce virus induced cytopathicity by 50% was determined against coxsackie B4 virus in HeLa cells; type: functional; details: Homo sapiens
HEL [11] = assay: Minimum inhibitory concentration required to reduce virus induced cytopathicity by 50% was determined against TK- VZV virus in HEL cells; type: functional; details: Homo sapiens
HEL [12] = assay: Minimum inhibitory concentration required to reduce virus induced cytopathicity by 50% was determined against VZV virus in HEL cells; type: functional; details: Homo sapiens
Influenza B virus = assay: (§3) Minimum inhibitory concentration required to reduce virus induced cytopathicity by 50% was determined against influenza B virus in MDCK cells; type: functional
Vero [13] = assay: Minimum inhibitory concentration required to reduce virus induced cytopathicity by 50% was determined against tacaribe virus in Vero cells; type: functional, Homo sapiens; details: Chlorocebus sabaeus
E6SM [14] = assay: Minimum inhibitory concentration required to reduce virus induced cytopathicity by 50% was determined against HSV-1 virus in E6SM cells; type: functional; details: Homo sapiens
E6SM [15] = assay: Minimum inhibitory concentration required to reduce virus induced cytopathicity by 50% was determined against vesicular stomatitis virus in E6SM cells; type: functional; details: Homo sapiens
HeLa [16] = assay: Minimum inhibitory concentration required to reduce virus induced cytopathicity by 50% was determined against polio 1 virus in HeLa cells; type: functional; details: Homo sapiens
E6SM [17] = assay: Minimum inhibitory concentration required to reduce virus induced cytopathicity by 50% was determined against vaccinia virus in E6SM cells; type: functional; details: Homo sapiens
Vero [18] = assay: (§4) Minimum inhibitory concentration required to reduce virus induced cytopathicity by 50% was determined against parainfluenza 3 virus in Vero cells; type: functional, Homo sapiens; details: Chlorocebus sabaeus
E6SM [19] = assay: Minimum inhibitory concentration required to reduce virus induced cytopathicity by 50% was determined against TK- HSV-1 virus in E6SM cells; type: functional; details: Homo sapiens
MDCK [20] = assay: as §1; type: functional; details: Canis lupus familiaris
MDCK [21] = assay: as §3; type: functional; details: Canis lupus familiaris
HEL [22] = assay: as §2; type: functional; details: Homo sapiens
Vero [23] = assay: as §4; type: functional; details: Chlorocebus sabaeus

SMILES	MIC (HeLa [1]) [µg/mL]	MIC (Vero [2]) [µg/mL]	MIC (Vero [3]) [µg/mL]	MIC (HeLa [4]) [µg/mL]	MIC (Homo sapiens) [µg/mL]	MIC (E6SM [5]) [µg/mL]	MIC (Vero [6]) [µg/mL]	MIC (Vero [7]) [µg/mL]	MIC (Vero [8]) [µg/mL]	MIC (Vero [9]) [µg/mL]	MIC (HeLa [10]) [µg/mL]	MIC (HEL [11]) [µg/mL]	MIC (HEL [12]) [µg/mL]	MIC (Vero [13]) [µg/mL]	MIC (E6SM [14]) [µg/mL]	MIC (E6SM [15]) [µg/mL]	MIC (HeLa [16]) [µg/mL]	MIC (E6SM [17]) [µg/mL]	MIC (Vero [18]) [µg/mL]	MIC (E6SM [19]) [µg/mL]	further results
Oc1ncnc2c1ncn2C1C[C@H](O)[C@H](O)[C@@H]1O (some centres undefined)	> 100	> 100	> 200	> 400	250 (≈ 991 µM)	300 (≈ 1190 µM)	> 200	> 100	> 200	> 200	> 400	250 (≈ 991 µM)	200 (≈ 793 µM)	> 100	300 (≈ 1190 µM)	> 300	> 400	> 300	> 200	200 (≈ 793 µM)	MIC (Influenza A virus): > 100 µg/mL; MIC (Influenza B virus): > 100 µg/mL
Nc1nc(N)c2ncn(C3C[C@H](O)[C@H](O)[C@@H]3O)c2n1 (some centres undefined)	50 (≈ 188 µM)	20 (≈ 75.1 µM)	10 (≈ 37.6 µM)	70 (≈ 263 µM)	250 (≈ 939 µM)	> 300	> 200	85 (≈ 319 µM)	> 200	> 200	> 400	165 (≈ 620 µM)	230 (≈ 864 µM)	100 (≈ 376 µM)	300 (≈ 1130 µM)	2 (≈ 7.51 µM)	> 400	15 (≈ 56.3 µM)	20 (≈ 75.1 µM)	> 200	MIC (MDCK [20]): > 100 µg/mL; MIC (MDCK [21]): > 100 µg/mL
Nc1nc(O)c2ncn(C3C[C@H](O)[C@H](O)[C@@H]3O)c2n1 (some centres undefined)	> 100	> 100	> 200	> 400	250 (≈ 935 µM)	> 400	> 200	> 100	> 200	> 200	> 400	235 (≈ 879 µM)	225 (≈ 842 µM)	> 100	300 (≈ 1120 µM)	> 400	> 200	> 400	> 200	> 300	MIC (MDCK [20]): > 100 µg/mL; MIC (MDCK [21]): > 100 µg/mL
NC(CCS)C(=O)Nc1ncnc2c1ncn2C1O[C@H](CO)[C@@H](O)[C@H]1O (some centres undefined)	–	–	2 (≈ 5.2 µM)	2 (≈ 5.2 µM)	–	> 400	> 100	2 (≈ 5.2 µM)	> 400	20 (≈ 52 µM)	> 400	–	–	2 (≈ 5.2 µM)	> 400	0.7 (≈ 1.82 µM)	> 400	2 (≈ 5.2 µM)	0.7 (≈ 1.82 µM)	> 400	–
O=c1[nH]c(=O)n([C@H]2C[C@H](O)[C@@H](CO)O2)cc1/C=C/Br [BRIVUDINE]	> 400	> 400	> 400	> 400	–	10 (≈ 30 µM)	> 400	> 400	> 400	> 400	> 400	> 10	0.001 (≈ 0.003 µM)	–	0.02 (≈ 0.06 µM)	> 400	–	7 (≈ 21 µM)	–	40 (≈ 120 µM)	–
Nc1ncnc2c1ncn2[C@@H]1C=C(CO)[C@@H](O)[C@H]1O [NEOPLANOCIN A]	0.2 (≈ 0.76 µM)	0.2 (≈ 0.76 µM)	0.4 (≈ 1.52 µM)	0.2 (≈ 0.76 µM)	–	> 40	> 40	0.4 (≈ 1.52 µM)	> 40	> 40	> 40	5 (≈ 19 µM)	8 (≈ 30.4 µM)	0.4 (≈ 1.52 µM)	> 40	0.2 (≈ 0.76 µM)	> 10	0.2 (≈ 0.76 µM)	0.4 (≈ 1.52 µM)	4 (≈ 15.2 µM)	MIC (MDCK [20]): > 20 µg/mL; MIC (HEL [22]): 0.4 µg/mL (≈ 1.52 µM); MIC (MDCK [21]): > 20 µg/mL
Nc1ncnc2c1ncn2[C@@H]1C[C@H](O)[C@@H](O)[C@H]1O [NORARISTEROMYCIN]	2 (≈ 7.96 µM)	0.4 (≈ 1.59 µM)	0.07 (≈ 0.279 µM)	0.07 (≈ 0.279 µM)	0.4 (≈ 1.59 µM)	300 (≈ 1190 µM)	> 200	0.5 (≈ 1.99 µM)	> 200	> 200	> 200	40 (≈ 159 µM)	65 (≈ 259 µM)	1 (≈ 3.98 µM)	200 (≈ 796 µM)	0.07 (≈ 0.279 µM)	> 200	0.3 (≈ 1.19 µM)	0.4 (≈ 1.59 µM)	20 (≈ 79.6 µM)	MIC (MDCK [20]): > 100 µg/mL; MIC (MDCK [21]): > 100 µg/mL
NC(=O)c1ncn([C@@H]2O[C@H](CO)[C@@H](O)[C@H]2O)n1 [RIBAVIRIN]	–	–	70 (≈ 287 µM)	20 (≈ 81.9 µM)	–	> 400	100 (≈ 409 µM)	–	40 (≈ 164 µM)	40 (≈ 164 µM)	70 (≈ 287 µM)	–	–	–	> 400	70 (≈ 287 µM)	70 (≈ 287 µM)	40 (≈ 164 µM)	–	> 400	MIC (Vero [23]): 20 µg/mL (≈ 81.9 µM)
